Like-named read-outs stand apart in the source and are kept apart here.
Columns and labels:
[1] = tested on: maximal electroshock seizure (MES); assay: Maximal electroshock seizure test (MES), mice, intraperitoneal; assay type: in vivo; settings: ip;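 note: adult male CF no. 1 albino mice of 18–25 g, given compound intraperitoneally as a 0.5% methylcellulose suspension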
in vivo = settings: male, Sprague-Dawley, rat, po
Procedure: (§1) The tested compounds were suspended in 0.5% methylcellulose and administered (a) intraperitioneally (ip) to adult male CF no. 1 albino mice (18-25 g) in volume of 0.01 mL/g body weight and (b) orally to adult male Sprague-Dawley albino rats (100-150 g) in volume of 0.04 mL per 10 g of body weight.
(§2) The TD50 was determined by varying the dose of the tested compounds until four points were established between the dose level that induced no signs of minimal motor impairment in any of the animals and the dose at which all the animals were considered impaired. […] The PIs were calculated by dividing the TD50 by the ED50.

[2] = tested on: subcutaneous metrazol (pentylenetetrazol) seizure; assay: animal or person; settings: Rattus norvegicus, po, read-out: scMet ED50
Procedure: (§3) The evaluation of the anticonvulsant activity in the maximal electroshock seizure test (MES) and subcutaneous metrazol seizure threshold test (scMet) and the determination of neurotoxicity in the rotorod test, positional sense test, and others were performed according to the protocols described in White, H. S., Woodhead J. H., Wilcox K. S., Stables J. P., Kupferberg H. J., Wolf H. H., Discovery and Preclinical Development of Antiepileptic Drugs; 5th ed.; Lippincott Williams &Wilkins: New york, 2002; 36-48.
(§4) The tested compounds were suspended in 0.5% methylcellulose and administered (a) intraperitioneally (ip) to adult male CF no. 1 albino mice (18-25 g) in volume of 0.01 mL/g body weight and (b) orally to adult male Sprague-Dawley albino rats (100-150 g) in volume of 0.04 mL per 10 g of body weight. The pentylenetetrazol solution at convulsing dose was prepared by sufficient dissolution of pentylenetetrazol in 0.9% saline to make 0.85% solution for administration to mice and a 2.82% solution for administration to rats.
as §2

[3] = tested on: subcutaneous metrazol (pentylenetetrazol) seizure; assay: Subcutaneous metrazol seizure threshold test (scMet), mice, intraperitoneal; assay type: in vivo; settings: ip;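 note: adult male CF no. 1 albino mice weighing 18-25 g, dosed intraperitoneally with compounds suspended in 0.5% methylcellulose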
[4] = tested on: maximal electroshock seizure (MES); assay: Maximal electroshock seizure test (MES), rats, oral; settings: for responders at 30 mg/kg / ED50: Rattus norvegicus, po; for responders at 30 mg/kg: read-out: Anti-MES activity (number of animals protected/number of animals tested); for ED50: read-out: MES ED50, rats dosed orally; for ED50 / MES ED50: interval in parentheses = 95% confidence interval; for MES ED50: rats dosed orally;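 for all read-outs here: adult male Sprague-Dawley rats received test compounds by mouth as a suspension in 0.5% methylcellulose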
Procedure: as §1, §2

[5] = tested on: subcutaneous metrazol (pentylenetetrazol) seizure; settings: for PI, protective index (PI = TD50/ED50) in the scMet test: male, Sprague-Dawley, rat, in vivo, po
Procedure: as §3, §4, §2

[6] = tested on: maximal electroshock seizure (MES); settings: male, Sprague-Dawley, rat, in vivo, po
Procedure: as §1, §2

[7] = 30 mg/kg, 0.5 h after administration
[8] = 30 mg/kg, 4 h after administration
[9] = 100 mg/kg, 0.5 h after administration
[10] = 100 mg/kg, 4 h after administration
[11] = 300 mg/kg, 0.5 h after administration
[12] = 300 mg/kg, 4 h after administration

SMILES | MES (number of animals protected/number of animals tested) [1, 7] | MES (number of animals protected/number of animals tested) [1, 8] | MES (number of animals protected/number of animals tested) [1, 9] | MES (number of animals protected/number of animals tested) [1, 10] | MES (number of animals protected/number of animals tested) [1, 11] | MES (number of animals protected/number of animals tested) [1, 12] | TD50 (in vivo) [mg/kg] | melting point [°C] | scMet (number of animals protected/number of animals tested) [3, 7] | scMet (number of animals protected/number of animals tested) [3, 8] | scMet (number of animals protected/number of animals tested) [3, 9] | scMet (number of animals protected/number of animals tested) [3, 10] | scMet (number of animals protected/number of animals tested) [3, 11] | scMet (number of animals protected/number of animals tested) [3, 12] | responders at 30 mg/kg ([4]; 0.5 h) [%] | responders at 30 mg/kg ([4]; 1 h) [%] | responders at 30 mg/kg ([4]; 2 h) [%] | responders at 30 mg/kg ([4]; 4 h) [%] | responders at 30 mg/kg ([4]; […]) [%] | ED50 [4] [mg/kg] | further results
CCC(CC)C(=O)NCc1ccc(S(N)(=O)=O)cc1 [Compound 28, 2-Ethyl-N-(4-sulfamoyl-benzyl)-butyramide] | 0/1 | 0/1 | 3/3 | 1/3 | 1/1 | 1/1 | > 500 | 148 to 150 | 0/1 0/1 0/1 | 0/1 0/1 0/1 | 0/1 0/1 0/1 | 0/1 0/1 0/1 | 0/1 0/1 0/1 | 0/1 0/1 0/1 | 25 | 50 | 0 | 0 | 25 | 24.7 | ED50 [2]: > 250 mg/kg; PI, protective index (PI = TD50/ED50) in the scMet test [5]: >2
CCC(C)C(CC)C(=O)Nc1ccc(S(N)(=O)=O)cc1 (centres unmarked) [Compound 19, 2-Ethyl-3-methyl-N-(4-sulfamoyl-phenyl)-pentanamide] | 0/1 | 0/1 | 3/7 | 3/3 | 4/5 | 1/1 | – | 203 to 205 | 0/1 0/1 0/1 | 0/1 0/1 0/1 | 0/1 0/1 0/1 | 0/1 0/1 0/1 | 0/1 0/1 0/1 | 0/1 0/1 0/1 | 0 | 75 | 100 | 75 | 0 | – | –
CCCC(C(=O)Nc1ccc(S(N)(=O)=O)cc1)C(C)CC (centres unmarked) [Compound 21, 2-propyl-3-Methyl-N-(4-sulfamoyl-phenyl)-pentanamide] | 0/1 | 0/1 | 1/3 | 2/3 | 1/1 | 1/1 | – | 223 to 226 | 0/1 0/1 0/1 | 0/1 0/1 0/1 | 0/1 0/1 0/1 | 0/1 0/1 0/1 | 0/1 0/1 0/1 | 0/1 0/1 0/1 | 25 | 25 | 50 | 25 | 0 | – | –
NS(=O)(=O)c1ccc(NC(=O)Cc2ccccc2)cc1 [Compound 30, 2-Phenyl-N-(4-sulfamoyl-phenyl)-acetamide] | 0/1 | 0/1 | 3/3 | 3/3 | 1/1 | 1/1 | > 500 | – | 0/1 0/1 0/1 | 0/1 0/1 0/1 | 0/1 0/1 0/1 | 0/1 0/1 0/1 | 0/1 0/1 0/1 | 0/1 0/1 0/1 | 0 | 100 | 75 | 100 | 0 | 16.1 | ED50 [2]: > 250 mg/kg; PI, protective index (PI = TD50/ED50) in the MES test [6]: >31.0; PI, protective index (PI = TD50/ED50) in the scMet test [5]: >2
CCCC(C)C(=O)Nc1ccc(S(N)(=O)=O)cc1 (centres unmarked) [Compound 16, 2-Methyl-N-(4-sulfamoyl-phenyl)-pentanamide] | 0/1 | 0/1 | 0/3 | 2/3 | 0/1 | 1/1 | > 500 | – | 0/1 0/1 0/1 | 0/1 0/1 0/1 | 0/1 0/1 0/1 | 0/1 0/1 0/1 | 0/1 0/1 0/1 | 0/1 0/1 0/1 | 25 | 100 | 100 | 100 | 25 | ~10 | ED50 [2]: > 250 mg/kg; PI, protective index (PI = TD50/ED50) in the MES test [6]: >46.3; PI, protective index (PI = TD50/ED50) in the scMet test [5]: >2
CC(C)(C)CC(=O)NCc1ccc(S(N)(=O)=O)cc1 [Compound 27, 3,3-Dimethyl-N-(4-sulfamoyl-benzyl)-butyramide] | 0/1 | 0/1 | 0/3 | 1/3 | 0/1 | 1/1 | – | 205 to 207 | 0/1 0/1 0/1 | 0/1 0/1 0/1 | 0/1 0/1 0/1 | 0/1 0/1 0/1 | 0/1 0/1 0/1 | 0/1 0/1 0/1 | 0 | 25 | 50 | 50 | 0 | – | –
CCC(CC)C(=O)Nc1ccc(S(N)(=O)=O)cc1 [Compound 11, 2-Ethyl-N-(4-sulfamoyl-phenyl)-butyramide] | 1/1 | 1/1 | 3/3 | 3/3 | 1/1 | 1/1 | > 500 | – | 0/1 0/1 0/1 | 0/1 0/1 0/1 | 0/1 0/1 0/1 | 0/1 0/1 0/1 | 0/1 0/1 0/1 | 0/1 0/1 0/1 | 75 | 100 | 100 | 100 | 25 | ~10 | ED50 [2]: > 250 mg/kg; anticonvulsant potency relative to valproic acid (times greater) ([4]; rat-MES, versus VPA): 49 times; rat-MES PI relative to VPA (times higher) ([4]; rat-MES, versus VPA): about 31 times; MES ED50 [4]: 9.9 (6.5-14.5) mg/kg; activity in the scMet test ([5]; doses up to 250 mg/kg): inactive; PI, protective index (PI = TD50/ED50) in the scMet test [5]: >2
CC(C)(C)C(=O)Nc1ccc(S(N)(=O)=O)cc1 [Compound 9, 2,2-Dimethyl-N-(4-sulfamoyl-phenyl)-propionamide] | 0/1 | 0/1 | 1/3 | 2/3 | 1/1 | 1/1 | > 500 | 228 to 229 | 0/1 0/1 0/1 | 0/1 0/1 0/1 | 0/1 0/1 0/1 | 0/1 0/1 0/1 | 0/1 0/1 0/1 | 0/1 0/1 0/1 | 0 | 75 | 50 | 100 | 0 | 42 | MES ED50 [4]: 42.2 (22.9-86.4) mg/kg; PI, protective index (PI = TD50/ED50) in the MES test [6]: >11.8

Source: US20120264827A1, “SULFANYLAMIDE DERIVATIVES, USES THEREOF AND COMPOSITIONS COMPRISING THEM” (YISSUM RESEARCH DEVELOPMENT COMPANY OF THE HEBREW …, priority 2009, published 2012)
